Assay: solvent given as SMILES

COc1ccccc1-c1c(-c2ccccc2O)nc(-c2ccc(C(F)(F)F)cc2)n1-c1ccc(C)cc1
absorption maximum (in C1CCOC1): 313 nm | absorption maximum (in CC(C)O): 311 nm | absorption maximum (in CO): 309 nm | absorption maximum (in CS(C)=O): 315 nm | absorption maximum (in ClC(Cl)Cl): 314 nm | absorption maximum (in ClCCl): 313 nm

CCC1(CC)c2cc(-c3cccs3)ccc2-c2c1c1c(c3c2C(CC)(CC)c2cc(-c4cccs4)ccc2-3)C(CC)(CC)c2cc(-c3cccs3)ccc2-1
absorption maximum (in C1CCOC1): 340 nm

O=Cc1ccc(-c2cccc(-c3nc4ccccc4s3)c2O)s1
absorption maximum (in CCO): 367 nm | absorption maximum (in ClCCl): 370 nm

CN1/C(=C\C=C\C2=C3C=CC(c4ccccc4)=[N+]3[B-](F)(F)n3c2ccc3-c2ccccc2)Sc2ccccc21
absorption maximum (in CC#N): 683 nm

CCCCCCc1ccc(-n2c3[n+](c4c5ccccc5c5ccccc5c42)[B-](C)(C)c2ccc4ccccc4c2-3)cc1
absorption maximum (in C1CCOC1): 392 nm | absorption maximum (in CC#N): 385 nm | absorption maximum (in Cc1ccccc1): 393 nm | absorption maximum (in ClCCl): 390 nm

COCCC1=Cc2nc1ccc1[nH]c(cc1CCOC)c1nc(c(NC(=O)CCCC(=O)O)cc3[nH]c2cc3CCOC)C(CCOC)=C1
absorption maximum (in Cc1ccccc1): 645 nm

COCCOCCOCCOc1ccc(OCCOCCOCCOC)c(C=O)c1
absorption maximum (in CC(C)(C)O): 349 nm | absorption maximum (in CC(C)CO): 349 nm | absorption maximum (in CC(C)O): 349 nm | absorption maximum (in CCCCO): 348 nm | absorption maximum (in CCCO): 348 nm | absorption maximum (in CCO): 348 nm | absorption maximum (in CN(C)C=O): 349 nm | absorption maximum (in CNC=O): 349 nm | absorption maximum (in CO): 348 nm | absorption maximum (in NC=O): 352 nm | absorption maximum (in O): 350 nm

CCCC1(CCC)c2cc(-c3ccc(C(C)(C)C)cc3)ccc2-c2ccc(-c3ccc4c(c3)C(CCC)(CCC)c3cc(-c5ccc(C(C)(C)C)cc5)ccc3-4)cc21
absorption maximum (in C1CCCCC1): 346 nm

COc1ccc2ncccc2c1
absorption maximum (in CC#N): 329 nm | absorption maximum (in CCCC#N): 329 nm | absorption maximum (in Cc1ccccc1): 331 nm

Cc1nc2c(ccc3ccc(N(C)C)cc32)oc1=O
absorption maximum (in c1ccccc1): 426 nm

O=[N+]([O-])c1ccc(C#Cc2ccccc2C#Cc2ccc([N+](=O)[O-])cc2)cc1
absorption maximum (in CC#N): 350 nm

CCN(CC)c1ccc2c(c1)C(C)(C)C(=O)C=C2
absorption maximum (in O): 429 nm

Cc1cc2ccccc2c2c1c1ccccc1n2-c1ccc(C#N)cc1
absorption maximum (in ClCCl): 303 nm

CCCCOc1c(C=C2C=Cc3ccccc3N2C)c(=O)c1=O
absorption maximum (in CCO): 465 nm

CN(C)c1ccc(C#Cc2cc3ccc4cc(C#Cc5ccc(N(C)C)cc5)cc5ccc(c2)c3c45)cc1
absorption maximum (in Cc1ccccc1): 421 nm

CCN(CC)c1cc2oc3cc(N(CC)CC)c(F)cc3c(=O)c2cc1F
absorption maximum (in CCO): 389 nm

Cc1ccc(-n2c3ccc(-c4ccc(-c5nc6ccccc6n5-c5ccccc5)cc4)cc3c3cc(-c4ccc(-c5nc6ccccc6n5-c5ccccc5)cc4)ccc32)cc1
absorption maximum (in ClC(Cl)Cl): 318 nm

c1cc2c3c(c1)-c1cccc4cccc(c14)B3c1cccc3cccc-2c13
absorption maximum (in Cc1ccccc1): 466 nm

CN(C)c1ccc(C2=Nc3scc(-c4ccc(C#N)cc4)[n+]3[B-](F)(F)O2)cc1
absorption maximum (in C1CCOC1): 411 nm | absorption maximum (in CC#N): 411 nm | absorption maximum (in Cc1ccccc1): 414 nm | absorption maximum (in ClCCl): 415 nm

CCN(CC)c1ccc(/C=C/c2ccc(-c3ccc(/C=C/c4ccc(N(CC)CC)cc4)s3)s2)cc1
absorption maximum (in Cc1ccccc1): 467.9 nm

O=C(O)c1cccc2c(=O)c3ccccc3[nH]c12
absorption maximum (in O): 413 nm

Cc1ccccc1C
absorption maximum (in C1CCCCC1): 258.26 nm

Cc1ccc(C(=O)c2c(C)c3ccc4cccc5c6cccc7ccc2c(c76)c3c45)cc1
absorption maximum (in ClCCl): 391 nm

N#Cc1ccc(C#Cc2ncc(-c3ccccc3)o2)cc1
absorption maximum (in ClCCl): 345 nm

COc1ccc(N(c2ccc(OC)cc2)c2sc(-c3ccc(Cl)cc3)nc2-c2ccccc2)cc1
absorption maximum (in ClC(Cl)Cl): 393 nm

COc1ccc(-c2cccc3ncc(-c4ccc(C#N)cc4)n23)cc1
absorption maximum (in ClCCl): 329 nm

CCCCCCCC(=O)Oc1ccc2c3cccc4c(OC(=O)CCCCCCC)ccc(c5cccc1c52)c43
absorption maximum (in C1CCOC1): 445 nm | absorption maximum (in Cc1ccccc1): 448 nm | absorption maximum (in ClC(Cl)(Cl)Cl): 448 nm | absorption maximum (in ClC(Cl)Cl): 446 nm | absorption maximum (in ClCCl): 445 nm | absorption maximum (in c1ccncc1): 449 nm

COc1ccc2cc(C3=[N+]4C(=Nc5c(-c6ccc7ccccc7c6)cc(-c6ccc7cc(OC)ccc7c6)n5[B-]4(F)F)C(c4ccc5ccccc5c4)=C3)ccc2c1
absorption maximum (in ClCCl): 718 nm

COc1ccc(/C=C/C2=[O+][B-](F)(F)OC(/C=C/c3ccc(OC)cc3)=C2c2ccc(OC)cc2)cc1
absorption maximum (in ClCCl): 506 nm

Cc1ccc2ccc3c(C)ccc4ccc1c2c43
absorption maximum (in CCCCCC): 344 nm | absorption maximum (in CO): 344 nm | absorption maximum (in ClCCl): 346 nm

C(=C\c1ccc(N(c2ccccc2)c2ccccc2)cc1)/c1ccc(-c2cc(-c3ccccn3)nc(-c3ccccn3)c2)cc1
absorption maximum (in C1CCOC1): 382 nm | absorption maximum (in C1COCCO1): 382 nm | absorption maximum (in CC#N): 379 nm | absorption maximum (in CCO): 379 nm | absorption maximum (in ClCCl): 383 nm

c1ccc2c(c1)-c1ccccc1C21c2cc(-c3ccc4ccc5cccc6ccc3c4c56)ccc2-c2ccc(-c3ccc4ccc5cccc6ccc3c4c56)cc21
absorption maximum (in ClC(Cl)Cl): 364 nm

Cc1c2c(c(C)c3ccccc13)-c1c-2ccc2nc3ccccc3nc12
absorption maximum (in ClC(Cl)Cl): 455 nm

COC(=O)C(Cc1ccc2oc(-c3ccc(N(c4ccccc4)c4ccccc4)cc3)nc2c1)NC(=O)OC(C)(C)C (stereo unspecified)
absorption maximum (in C1CCCCC1): 361.7 nm | absorption maximum (in C1CCOC1): 362.85 nm | absorption maximum (in C1COCCO1): 363.1 nm | absorption maximum (in CC1CCCCC1): 361.35 nm | absorption maximum (in CC1COC(=O)O1): 361.45 nm | absorption maximum (in CC#N): 360.5 nm | absorption maximum (in CC(C)=O): 360.45 nm | absorption maximum (in CC(C)O): 365.45 nm | absorption maximum (in CC(O)CO): 368.35 nm | absorption maximum (in CCCCCC): 359.8 nm | absorption maximum (in CCCCCCCC): 361.55 nm | absorption maximum (in CCCCCO): 367.75 nm | absorption maximum (in CCCCO): 367.1 nm | absorption maximum (in CCO): 366.3 nm | absorption maximum (in CCOC(C)=O): 360.5 nm | absorption maximum (in CN(C)C=O): 363 nm | absorption maximum (in CO): 365.05 nm | absorption maximum (in COCCOC): 362.55 nm | absorption maximum (in CS(C)=O): 364 nm | absorption maximum (in ClC(Cl)Cl): 369.25 nm | absorption maximum (in ClCCl): 366.18 nm | absorption maximum (in N#Cc1ccccc1): 368.3 nm | absorption maximum (in NC=O): 367.45 nm | absorption maximum (in O): 367 nm | absorption maximum (in OCC(F)(F)F): 366.1 nm

CCOC(=O)c1cc(C(=O)OCC)c2cc(C)ccc2n1
absorption maximum (in CCO): 330 nm

CC(C)[Si](C#Cc1c2c(=O)c3ccccc3c2c(C#C[Si](C(C)C)(C(C)C)C(C)C)c2c(=O)c3ccccc3c12)(C(C)C)C(C)C
absorption maximum (in ClC(Cl)Cl): 525 nm

CCOC(=O)CCCCCn1c2ccccc2c(=O)c2cc(I)ccc21
absorption maximum (in CO): 414 nm

COc1ccc(C2=C/C(=C\c3ccccc3)C(=O)N2)cc1OC
absorption maximum (in C1COCCO1): 431 nm

CC1(C)c2ccccc2N(c2ccc(-c3nc4c(C#N)ccc(C#N)c4nc3-c3ccc(N4c5ccccc5C(C)(C)c5ccccc54)cc3)cc2)c2ccccc21
absorption maximum (in Cc1ccccc1): 479 nm

C[n+]1ccn(CCCCc2ccc3c(c2)c2ccccc2n3-c2cc(C#N)c(C#N)cc2F)c1
absorption maximum (in CC#N): 350.79 nm

Cc1c(C)n2c(COC(=O)c3ccc(F)cc3)c(C)c(=O)n2c1=O
absorption maximum (in CCO): 375 nm

O=C1c2cc3ccccc3cc2C2=Nc3ccc4ccccc4[n+]3[B-](F)(F)N12
absorption maximum (in ClCCl): 419 nm

C(=C(c1ccccc1)c1ccccc1)c1ccc(-c2cc(-c3ccc(C=C(c4ccccc4)c4ccccc4)cc3)cc(-c3ccc(C=C(c4ccccc4)c4ccccc4)cc3)c2)cc1
absorption maximum (in C1CCOC1): 333 nm

CC(C)(C)c1ccc(-c2nc3c4ccccc4c4ccccc4c3n2-c2ccc(-c3ccc(N(c4ccccc4)c4ccccc4)cc3)cc2)cc1
absorption maximum (in ClCCl): 332 nm

O=C1O[B-]2(OC1=O)OC(c1ccc3ccccc3c1)=CC(c1ccc3ccccc3c1)=[O+]2
absorption maximum (in CC#N): 435 nm | absorption maximum (in ClC(Cl)(Cl)Cl): 438 nm

CCCC1(CCC)c2cc(C=C(C#Cc3ccccc3)C#Cc3ccccc3)ccc2-c2ccc(C=C(C#Cc3ccccc3)C#Cc3ccccc3)cc21
absorption maximum (in ClC(Cl)Cl): 422 nm

CCn1c2ccccc2c2cc(-c3cc(-c4ccc5c(c4)c4ccccc4n5CC)nc(-c4ccc(C#N)cc4)n3)ccc21
absorption maximum (in C1CCOC1): 367 nm | absorption maximum (in CCOC(C)=O): 363 nm | absorption maximum (in CN(C)C=O): 370 nm | absorption maximum (in Cc1ccccc1): 366 nm | absorption maximum (in ClCCl): 365 nm

CCCCCCc1cc2c3cscc3c3cc(CCCCCC)sc3c2s1
absorption maximum (in ClC(Cl)Cl): 393 nm

O=P1(c2ccccc2)C(c2ccc(C3=Cc4ccccc4P3(=O)c3ccccc3)cc2)=Cc2ccccc21 (stereo unspecified)
absorption maximum (in C1CCOC1): 387 nm

Oc1cccc(/N=C/c2ccccc2Oc2ccccc2)c1
absorption maximum (in C1CCCCC1): 322 nm | absorption maximum (in C1CCOC1): 327 nm | absorption maximum (in C1COCCO1): 325 nm | absorption maximum (in CC#N): 328 nm | absorption maximum (in CC(C)CO): 323 nm | absorption maximum (in CC(C)O): 324 nm | absorption maximum (in CCCCC): 318 nm | absorption maximum (in CCCCCC): 320 nm | absorption maximum (in CCCCCCCCO): 329 nm | absorption maximum (in CCCCCCCO): 325 nm | absorption maximum (in CCCCCCO): 321 nm | absorption maximum (in CCCCO): 331 nm | absorption maximum (in CCCCOC(C)=O): 326 nm | absorption maximum (in CCCO): 328 nm | absorption maximum (in CCO): 327 nm | absorption maximum (in CCOC(C)=O): 321 nm | absorption maximum (in CCOCC): 327 nm | absorption maximum (in CN(C)C=O): 329 nm | absorption maximum (in CO): 328 nm | absorption maximum (in CS(C)=O): 329 nm | absorption maximum (in Cc1ccccc1): 324 nm | absorption maximum (in Cc1ccccc1C): 327 nm | absorption maximum (in ClC(Cl)Cl): 328 nm | absorption maximum (in ClCCl): 325 nm | absorption maximum (in N#Cc1ccccc1): 344 nm | absorption maximum (in OCCO): 328 nm | absorption maximum (in c1ccccc1): 328 nm

CCCCCCCCCCCCN1C(=O)c2c(c3ccc4cc(-c5ccc(-c6ccccc6)cc5)c(OC)cc4c3c3c2ccc2cc(-c4ccc(-c5ccccc5)cc4)c(OC)cc23)C1=O
absorption maximum (in ClCCl): 437 nm

— the Deep4Chem optical property database
